The values that follow come from article PMC6792352, “Limited Chemical Structural Diversity Found to Modulate Thyroid Hormone Receptor in the Tox21 Chemical Library” (Environmental Health Perspectives, 2019).

Structures can show the parent of a compound that is named as a salt. A value given as a limit tells only on which side of the number the result lay.

The data set in a line: in vitro. The following applies: rat, gh3-tre-luc cells.

`N=c1c[n+](N2CCOCC2)[n-]o1` [3-Morpholinosydnonimine hydrochloride] had a CC50 at 24 h (AC50 (uM) modified / 1000) of over 50 µM.
For the setting “AC50 (uM) modified / 1000”, `CCC[C@@]1(CCc2ccccc2)CC(O)=C([C@H](CC)c2cccc(NS(=O)(=O)c3ccc(C(F)(F)F)cn3)c2)C(=O)O1` [Tipranavir] showed a half-maximal cytotoxic concentration (CC50) at 24 h of over 50 µM.
As for `CCN(C(C)=O)c1cccc(-c2ccnc3c(C#N)cnn23)c1` [Zaleplon], the CC50 at 24 h (AC50 (uM) modified / 1000, Tox21_110001=Tox21_111872, viability, 1 nM T3 present, 24 h) is over 50 µM.
Turning to `CC(=O)O[C@H]1C[C@H](O[C@H]2[C@@H](O)C[C@H](O[C@H]3[C@@H](O)C[C@H](O[C@H]4CC[C@@]5(C)[C@H](CC[C@@H]6[C@@H]5CC[C@]5(C)[C@@H](C7=CC(=O)OC7)[C@@H](O)C[C@]65O)C4)O[C@@H]3C)O[C@@H]2C)O[C@H](C)[C@H]1O[C@@H]1O[C@H](CO)[C@@H](O)[C@H](O)[C@H]1O` [Lanatoside B], the half-maximal cytotoxic concentration (CC50) at 24 h (AC50 (uM) modified / 1000) is over 50 µM.
In turn, `ClCOCCl` [bis(Chloromethyl) ether] displayed a 50% cytotoxic concentration (CC50) at 24 h (AC50 (uM) modified / 1000) of over 90 µM.
For the compound `CCOC(=O)c1ccccc1OC` [Ethyl 2-methoxybenzoate], the CC50 at 24 h (AC50 (uM) modified / 1000) is over 90 µM.
Under “AC50 (uM) modified / 1000”, `O=C1O[C@H](CO)[C@@H](O)[C@H](O)[C@H]1O` [Gluconolactone] gave a half-maximal cytotoxic concentration (CC50) at 24 h of over 90 µM.
The compound `C[C@@H]1[C@@H]2Cc3ccc(O)cc3[C@@]1(C)CCN2CCc1ccccc1` [(+)-Phenazocine hydrobromide] showed a CC50 at 24 h (AC50 (uM) modified / 1000, Tox21_110001=Tox21_112834, viability, 1 nM T3 present, 24 h) of 67.4 µM.
`CC(=O)OCC1=C(C(=O)O)N2C(=O)[C@@H](N)[C@H]2SC1` [7-Aminocephalosporanic acid] had a half-maximal cytotoxic concentration (CC50) at 24 h (AC50 (uM) modified / 1000) of over 20 µM.
Consider `CN1CCCC1=O` [N-Methyl-2-pyrrolidone], for which the CC50 at 24 h (AC50 (uM) modified / 1000) was over 90 µM.
Consider `CCOC(=O)CN[C@@H](C(=O)N1CC[C@H]1C(=O)NCc1ccc(/C(N)=N\O)cc1)C1CCCCC1` [Ximelagatran], for which the 50% cytotoxic concentration (CC50) at 24 h (AC50 (uM) modified / 1000) is over 50 µM.
With `CO/N=C(\C(=O)N[C@@H]1C(=O)N2C(C(=O)OCOC(=O)C(C)(C)C)=C(/C=C\c3scnc3C)CS[C@H]12)c1csc(N)n1` [Cefditorin pivoxil], under “AC50 (uM) modified / 1000”, the CC50 at 24 h is over 50 µM.
Compound `CS(=O)(=O)OC[C@H](O)[C@@H](O)COS(C)(=O)=O` [Treosulfan] had a 50% cytotoxic concentration (CC50) at 24 h (AC50 (uM) modified / 1000) of over 50 µM.
As to `O=C(NC(=O)c1c(F)cccc1F)Nc1cc(Cl)c(OC(F)(F)C(F)C(F)(F)F)cc1Cl` (stereo not shown) [Lufenuron], where the note is “AC50 (uM) modified / 1000”, the CC50 at 24 h is over 90 µM.
Turning to `CCCOC(OCCC)OCCC` [Tripropyl orthoformate], the cytotoxic concentration (CC50) at 24 h (AC50 (uM) modified / 1000) is over 90 µM.
As for `CCCCCCOc1ccc(N)cc1` [4-Hexyloxyaniline], for the setting “AC50 (uM) modified / 1000”, the CC50 at 24 h is over 90 µM.
`CC(C(=O)O)c1ccc(N2Cc3ccccc3C2=O)cc1` (stereo not shown) [Indoprofen]: the CC50 at 24 h (AC50 (uM) modified / 1000) is over 50 µM.
With `NC(=O)OCC(COC(N)=O)c1ccccc1` [Felbamate], the half-maximal cytotoxic concentration (CC50) at 24 h (AC50 (uM) modified / 1000) was over 90 µM.
In the case of `Cl/C(=C\n1cncn1)c1ccc(Cl)cc1Cl` [Loreclezole hydrochloride], the CC50 at 24 h (AC50 (uM) modified / 1000) was over 50 µM.
`CNC(=O)NC` [N,N'-Dimethylurea] displayed a 50% cytotoxic concentration (CC50) at 24 h (AC50 (uM) modified / 1000) of over 90 µM.
`CC[N+](CC)(CC)CCOc1ccc(/C=C/c2ccccc2)cc1` [Stilonium iodide] returned a 50% cytotoxic concentration (CC50) at 24 h (AC50 (uM) modified / 1000) of over 50 µM.
`CC(C)[C@H](C(=O)O[C@H](C#N)c1cccc(Oc2ccccc2)c1)c1ccc(Cl)cc1` [Esfenvalerate] returned a cytotoxic concentration (CC50) at 24 h (AC50 (uM) modified / 1000) of over 90 µM.
As for `CCCN(CCC)c1c([N+](=O)[O-])cc(C(C)C)cc1[N+](=O)[O-]` [Isopropalin], the CC50 at 24 h runs as follows: (AC50 (uM) modified / 1000, Tox21_110001=Tox21_202228, viability, 1 nM T3 present, 24 h) 89.1 µM; (AC50 (uM) modified / 1000, Tox21_110001=Tox21_300422, viability, 1 nM T3 present, 24 h) 45.3 µM.
Consider `O=NN1CCOCC1` [N-Nitrosomorpholine], for which the CC50 at 24 h runs as follows: (AC50 (uM) modified / 1000, Tox21_110001=Tox21_202132, viability, 1 nM T3 present, 24 h) over 100 µM; (AC50 (uM) modified / 1000, Tox21_110001=Tox21_302867, viability, 1 nM T3 present, 24 h) over 90 µM.
With `CCc1ccc(C(=O)NN(C(=O)c2cc(C)cc(C)c2)C(C)(C)C)cc1` [Tebufenozide], under “AC50 (uM) modified / 1000”, the midpoint of cytotoxicity, the CC50 at 24 h, lay at 2.75 µM.
Consider `CCOC(=O)[C@H](CCc1ccccc1)N[C@@H](C)C(=O)N1Cc2cc(OC)c(OC)cc2C[C@H]1C(=O)O` [Moexipril hydrochloride], for which the CC50 at 24 h (AC50 (uM) modified / 1000) is over 50 µM.
With `COC(=O)C1=C(C)NC(C)=C(C(=O)OCCCN2CCC(c3ccccc3)(c3ccccc3)CC2)C1c1cccc([N+](=O)[O-])c1` (racemic) [(+/-) -Niguldipine hydrochloride (1:x)], the midpoint of cytotoxicity (AC50 (uM) modified / 1000), the CC50 at 24 h, lay at 12.3 µM.
For the setting “AC50 (uM) modified / 1000”, `CCc1ncnc2cc(OC)c(OC)cc12` [Quazodine] showed a CC50 at 24 h of over 50 µM.
`CCCCCCC1CCC(=O)O1` (stereo not shown) [gamma-Decanolactone] yielded a 50% cytotoxic concentration (CC50) at 24 h (AC50 (uM) modified / 1000) of over 90 µM.
As to `N=C(N)/N=C(\N)N1CCOCC1` [Moroxidine hydrochloride], under “AC50 (uM) modified / 1000”, the cytotoxic concentration (CC50) at 24 h was over 20 µM.
On the same count and under the same terms, to `c1ccc([C@H]2CN3CCSC3=N2)cc1` [Levamisole hydrochloride] belongs over 50 µM; to `O=C(CCBr)N1CCN(C(=O)CCBr)CC1` [Pipobroman], over 50 µM; to `CC(=O)OCC(COC(C)=O)OC(C)=O` [Triacetin], over 90 µM.
For `CCCCCCCC/C=C\CCCCCCCC(=O)OCC` [Ethyl oleate], where the note is “AC50 (uM) modified / 1000”, the CC50 at 24 h was over 90 µM.
The same measure, in the same setting: then `O=C(O)Cn1c(C(=O)Nc2nc(-c3ccccc3Cl)cs2)cc2ccccc21` [Lintitript], with over 50 µM; and `CCN(O)CC` [N,N-Diethylhydroxylamine], with over 90 µM; and `N=C(N)c1ccc2cc(OC(=O)c3ccc(N=C(N)N)cc3)ccc2c1` [Nafamostat mesylate], with over 50 µM.
On the same count and under the same terms, then `CC(C)(C)c1cccc(O)c1` [3-tert-Butylphenol], with over 90 µM; and `COc1c(O[C@@H]2O[C@H](CO)[C@@H](O)[C@H](O)[C@H]2O)cc2c(c1OC)-c1ccc(SC)c(=O)cc1[C@@H](NC(C)=O)CC2` [Thiocolchicoside], with over 20 µM; and `Fc1ccc(C(OCCN2CCN(CCCc3ccccc3)CC2)c2ccc(F)cc2)cc1` [GBR 12909 dihydrochloride], with 8.65 µM.
For `NC1CCC(CC2CCC(N)CC2)CC1` (stereo not shown) [4,4'-Diaminodicyclohexylmethane], the CC50 at 24 h (AC50 (uM) modified / 1000) was over 90 µM.
For `COCCOc1cc2cc(C(=O)NC3CCN(C(C)C)CC3)n(CC(=O)Nc3ccc(Cl)cn3)c2cn1` [SAR377142], the half-maximal cytotoxic concentration (CC50) at 24 h (AC50 (uM) modified / 1000) is 71.7 µM.
The compound `CO/N=C(\C(=O)N[C@@H]1C(=O)N2C(C(=O)O)=CCS[C@H]12)c1csc(N)n1` [Ceftizoxime sodium] gave a half-maximal cytotoxic concentration (CC50) at 24 h (AC50 (uM) modified / 1000) of over 50 µM.
For the compound `C=C(C)CNCC` [N-Ethyl-2-methylallylamine], the CC50 at 24 h (AC50 (uM) modified / 1000) is over 90 µM.
Same read-out and setting: then `CN1CCN(CC(=O)N2c3ccccc3C(=O)Nc3cccnc32)CC1` [Pirenzepine], with over 50 µM; and `CCCN1C[C@H](CSC)C[C@@H]2c3cccc4[nH]cc(c34)C[C@H]21` [Pergolide methanesulfonate], with over 50 µM; and `Cc1c(C(=O)NCCO)[n+]([O-])c2ccccc2[n+]1[O-]` [Olaquindox], with over 50 µM.
Same read-out and setting: then `CCCCCCCCCCCCOCCCN` [Laurixamine], with over 50 µM.
For the setting “AC50 (uM) modified / 1000”, `C=C[C@]1(C)C[C@@H](OC(=O)CO)[C@]2(C)[C@H](C)CC[C@]3(CCC(=O)[C@H]32)[C@@H](C)[C@@H]1O` [Pleuromutilin] registered a half-maximal cytotoxic concentration (CC50) at 24 h of over 50 µM.
Same read-out and setting: to `CCN(CC)C(=O)c1cccnc1` [N,N-Diethylnicotinamide] belongs over 50 µM.
On to `COc1ccc2c3c1O[C@H]1[C@@H](O)C=C[C@H]4[C@@H](C2)NCC[C@@]341` [Norcodeine], for which the CC50 at 24 h (AC50 (uM) modified / 1000, Tox21_110001=Tox21_112027, viability, 1 nM T3 present, 24 h) is over 50 µM.
Compound `CC(=O)Nc1ccc(CC(=O)O)cc1` [4-Acetylaminophenylacetic acid] showed a cytotoxic concentration (CC50) at 24 h (AC50 (uM) modified / 1000) of over 90 µM.
Same read-out and setting: then `CC(C)NCC(O)c1cc(O)cc(O)c1` (stereo not shown) [Orciprenaline sulfate], with over 50 µM.
